For 22 molecules, IC50 results are on record in US10221197B2, “Phosphatidylinositol 3-kinase inhibitors” (Gilead Sciences, Inc., priority 2014, dated 2019).

What is called IC50 is the concentration that inhibits the measured activity by half.

Molecules are shown by their SMILES. Where a name gives a salt, the structure may show the parent alone.

Holding throughout (type): biochemical
One assay deals with PI3Kγ (Homo sapiens (Human), UniProt P48736). Description: TR-FRET enzymatic assay of PI3K isoforms (PI3Kγ). Particulars: TR-FRET, 2×Km ATP, 2 μM PIP2, PI3Kγ at 2 nM, incubated for 30 minutes at 25° C.; read-out: γ IC50. As for the experimental part: (§1) The compounds of formula (I) were characterized for their enzymatic activity against the PI3K isoforms. Certain compounds of the present application, including certain compounds of formula (II) and (III) were also characterized for their enzymatic activity against PI3K isoforms. The activities were measured using a time-resolved fluorescence resonance energy transfer (TR-FRET) assay.
PI3Kγ, sequence (P48736 whole entry, canonical isoform): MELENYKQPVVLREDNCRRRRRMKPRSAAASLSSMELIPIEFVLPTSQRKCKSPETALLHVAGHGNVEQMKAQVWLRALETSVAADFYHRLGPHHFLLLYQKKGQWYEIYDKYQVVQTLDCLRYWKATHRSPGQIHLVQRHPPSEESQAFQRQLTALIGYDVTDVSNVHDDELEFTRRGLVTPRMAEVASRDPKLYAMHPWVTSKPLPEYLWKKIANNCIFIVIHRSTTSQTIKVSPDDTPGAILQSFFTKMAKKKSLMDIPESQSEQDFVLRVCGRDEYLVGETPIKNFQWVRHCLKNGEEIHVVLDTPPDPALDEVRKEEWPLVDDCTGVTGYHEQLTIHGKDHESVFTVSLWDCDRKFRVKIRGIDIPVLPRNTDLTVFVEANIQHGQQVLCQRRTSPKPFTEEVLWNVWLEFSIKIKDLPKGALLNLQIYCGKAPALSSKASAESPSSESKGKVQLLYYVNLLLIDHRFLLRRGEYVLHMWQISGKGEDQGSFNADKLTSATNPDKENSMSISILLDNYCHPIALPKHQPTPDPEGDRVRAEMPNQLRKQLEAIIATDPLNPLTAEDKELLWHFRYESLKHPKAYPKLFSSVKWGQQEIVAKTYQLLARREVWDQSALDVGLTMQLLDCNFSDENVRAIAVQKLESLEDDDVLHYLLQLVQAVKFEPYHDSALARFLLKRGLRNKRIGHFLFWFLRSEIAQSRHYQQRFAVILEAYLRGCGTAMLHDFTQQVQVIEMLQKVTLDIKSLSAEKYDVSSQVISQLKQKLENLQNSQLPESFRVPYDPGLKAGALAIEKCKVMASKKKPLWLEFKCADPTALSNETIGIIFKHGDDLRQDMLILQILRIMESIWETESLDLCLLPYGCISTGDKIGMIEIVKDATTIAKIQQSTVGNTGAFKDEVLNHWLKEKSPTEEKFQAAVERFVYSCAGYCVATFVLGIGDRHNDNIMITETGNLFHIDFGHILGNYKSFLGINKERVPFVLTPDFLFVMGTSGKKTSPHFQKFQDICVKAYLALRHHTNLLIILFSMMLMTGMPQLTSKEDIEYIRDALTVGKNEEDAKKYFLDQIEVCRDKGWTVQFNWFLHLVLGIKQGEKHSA
PI3Kγ, sequence (Q8WYR1 whole entry partner, canonical isoform): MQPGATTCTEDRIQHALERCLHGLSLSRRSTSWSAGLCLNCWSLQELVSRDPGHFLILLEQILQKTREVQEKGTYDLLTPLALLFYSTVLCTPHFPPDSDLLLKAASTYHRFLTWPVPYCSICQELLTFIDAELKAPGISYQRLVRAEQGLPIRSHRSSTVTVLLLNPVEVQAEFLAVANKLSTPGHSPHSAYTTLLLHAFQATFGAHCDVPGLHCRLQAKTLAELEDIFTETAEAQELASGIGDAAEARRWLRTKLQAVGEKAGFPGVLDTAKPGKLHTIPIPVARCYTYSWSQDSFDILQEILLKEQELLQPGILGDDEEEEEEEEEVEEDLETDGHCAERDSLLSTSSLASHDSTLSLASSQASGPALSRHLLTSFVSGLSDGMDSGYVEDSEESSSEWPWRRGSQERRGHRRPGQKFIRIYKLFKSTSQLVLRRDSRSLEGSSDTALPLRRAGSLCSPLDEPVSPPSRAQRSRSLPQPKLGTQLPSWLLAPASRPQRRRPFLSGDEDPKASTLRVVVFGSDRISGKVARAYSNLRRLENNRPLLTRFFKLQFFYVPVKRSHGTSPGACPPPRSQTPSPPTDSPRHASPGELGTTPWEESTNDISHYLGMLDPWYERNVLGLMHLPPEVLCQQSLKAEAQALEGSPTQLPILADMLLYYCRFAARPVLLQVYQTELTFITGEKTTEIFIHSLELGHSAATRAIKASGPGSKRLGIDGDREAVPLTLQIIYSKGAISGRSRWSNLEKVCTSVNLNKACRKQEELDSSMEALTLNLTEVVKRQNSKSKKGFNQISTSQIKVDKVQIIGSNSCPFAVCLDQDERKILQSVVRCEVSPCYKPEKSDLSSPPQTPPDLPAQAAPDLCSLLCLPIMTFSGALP

The next assay addresses PI3Kδ (Homo sapiens (Human), UniProt O00329). Put plainly: TR-FRET enzymatic assay of PI3K isoforms (PI3Kδ). The conditions noted are these: 2×Km ATP, 2 μM PIP2, incubated for 30 minutes at 25° C., read-out: δ IC50. As for the experimental part: as §1
The next assay concerns the target PI3Kβ (Homo sapiens (Human), UniProt P42338). Description: TR-FRET enzymatic assay of PI3K isoforms (PI3Kβ). Particulars: TR-FRET, 2×Km ATP, 2 μM PIP2, incubated for 30 minutes at 25° C.; read-out: β IC50. As for the experimental part:
as §1

PI3Kδ, sequence (O00329 whole entry, canonical isoform): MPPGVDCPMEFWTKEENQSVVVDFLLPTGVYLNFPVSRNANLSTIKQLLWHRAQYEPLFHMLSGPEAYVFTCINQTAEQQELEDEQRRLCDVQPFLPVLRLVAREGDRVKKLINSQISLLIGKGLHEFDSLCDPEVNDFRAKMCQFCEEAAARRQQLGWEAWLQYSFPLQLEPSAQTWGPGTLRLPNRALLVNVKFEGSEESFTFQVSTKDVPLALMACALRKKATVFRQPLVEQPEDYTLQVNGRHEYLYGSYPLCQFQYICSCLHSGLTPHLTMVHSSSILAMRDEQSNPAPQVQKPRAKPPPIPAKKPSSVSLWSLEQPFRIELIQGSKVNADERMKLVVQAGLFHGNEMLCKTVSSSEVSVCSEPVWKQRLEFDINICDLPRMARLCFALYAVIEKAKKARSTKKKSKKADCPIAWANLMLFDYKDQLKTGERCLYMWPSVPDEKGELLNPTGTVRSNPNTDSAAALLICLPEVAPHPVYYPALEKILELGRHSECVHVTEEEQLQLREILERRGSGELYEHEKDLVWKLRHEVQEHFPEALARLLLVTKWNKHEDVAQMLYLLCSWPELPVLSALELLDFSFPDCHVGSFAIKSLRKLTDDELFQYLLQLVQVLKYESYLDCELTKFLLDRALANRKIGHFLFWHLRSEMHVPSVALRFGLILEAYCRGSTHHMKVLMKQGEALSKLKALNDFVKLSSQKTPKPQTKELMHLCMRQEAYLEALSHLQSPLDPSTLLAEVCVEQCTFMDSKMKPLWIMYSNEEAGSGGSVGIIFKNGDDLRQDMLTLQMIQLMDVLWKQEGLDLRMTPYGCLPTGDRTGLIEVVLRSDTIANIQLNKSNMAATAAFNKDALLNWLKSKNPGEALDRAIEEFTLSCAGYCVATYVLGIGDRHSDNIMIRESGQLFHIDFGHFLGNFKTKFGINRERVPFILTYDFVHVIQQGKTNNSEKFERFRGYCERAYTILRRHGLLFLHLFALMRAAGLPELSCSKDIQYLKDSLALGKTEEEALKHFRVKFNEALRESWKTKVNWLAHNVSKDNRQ
PI3Kδ, sequence (P27986 whole entry partner, canonical isoform): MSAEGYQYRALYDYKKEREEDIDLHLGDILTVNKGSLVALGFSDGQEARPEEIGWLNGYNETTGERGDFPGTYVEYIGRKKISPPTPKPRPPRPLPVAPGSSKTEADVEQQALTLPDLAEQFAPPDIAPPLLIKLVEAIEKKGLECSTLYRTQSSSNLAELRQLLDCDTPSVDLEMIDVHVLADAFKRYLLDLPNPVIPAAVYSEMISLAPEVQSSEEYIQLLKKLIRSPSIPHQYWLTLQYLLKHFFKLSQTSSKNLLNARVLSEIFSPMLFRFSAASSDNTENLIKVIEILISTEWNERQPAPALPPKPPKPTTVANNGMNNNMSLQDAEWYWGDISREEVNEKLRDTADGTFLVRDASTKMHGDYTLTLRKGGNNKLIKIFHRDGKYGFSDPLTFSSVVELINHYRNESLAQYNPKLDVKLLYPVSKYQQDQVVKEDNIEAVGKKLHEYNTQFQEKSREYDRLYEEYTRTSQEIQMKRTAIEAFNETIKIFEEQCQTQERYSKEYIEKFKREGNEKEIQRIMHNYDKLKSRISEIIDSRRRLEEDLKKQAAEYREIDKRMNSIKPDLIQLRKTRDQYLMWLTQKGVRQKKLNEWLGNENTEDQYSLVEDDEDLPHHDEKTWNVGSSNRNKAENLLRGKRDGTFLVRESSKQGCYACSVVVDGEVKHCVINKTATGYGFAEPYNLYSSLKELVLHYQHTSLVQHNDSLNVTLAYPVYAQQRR
PI3Kβ, sequence (P42338 whole entry, canonical isoform): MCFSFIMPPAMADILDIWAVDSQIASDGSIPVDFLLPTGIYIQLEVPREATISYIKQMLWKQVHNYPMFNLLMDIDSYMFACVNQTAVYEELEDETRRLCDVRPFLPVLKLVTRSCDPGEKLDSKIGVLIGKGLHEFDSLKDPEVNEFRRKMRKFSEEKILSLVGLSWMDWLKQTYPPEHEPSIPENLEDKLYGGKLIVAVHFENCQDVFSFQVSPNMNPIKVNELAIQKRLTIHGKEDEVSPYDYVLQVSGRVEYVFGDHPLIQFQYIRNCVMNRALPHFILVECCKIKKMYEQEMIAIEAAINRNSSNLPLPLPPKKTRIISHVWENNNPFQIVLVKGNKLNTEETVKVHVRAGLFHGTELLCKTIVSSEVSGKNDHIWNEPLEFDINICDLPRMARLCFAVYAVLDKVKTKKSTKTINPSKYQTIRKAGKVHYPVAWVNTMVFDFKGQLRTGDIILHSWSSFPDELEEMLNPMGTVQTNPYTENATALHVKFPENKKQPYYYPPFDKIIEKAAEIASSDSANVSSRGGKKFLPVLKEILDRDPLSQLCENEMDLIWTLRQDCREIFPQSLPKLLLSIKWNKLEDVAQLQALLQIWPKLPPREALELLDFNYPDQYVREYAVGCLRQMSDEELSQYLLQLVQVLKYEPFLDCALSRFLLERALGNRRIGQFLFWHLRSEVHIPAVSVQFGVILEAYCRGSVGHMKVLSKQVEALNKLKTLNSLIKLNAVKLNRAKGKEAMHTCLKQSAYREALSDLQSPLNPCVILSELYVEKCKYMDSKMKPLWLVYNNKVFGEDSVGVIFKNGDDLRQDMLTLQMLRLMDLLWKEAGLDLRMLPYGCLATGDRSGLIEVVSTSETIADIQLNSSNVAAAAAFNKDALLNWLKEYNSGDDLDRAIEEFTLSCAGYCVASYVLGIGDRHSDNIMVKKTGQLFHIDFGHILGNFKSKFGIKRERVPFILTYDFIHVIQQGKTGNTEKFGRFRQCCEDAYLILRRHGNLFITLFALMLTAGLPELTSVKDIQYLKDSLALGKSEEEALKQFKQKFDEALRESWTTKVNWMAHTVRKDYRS
PI3Kβ, sequence (P27986 whole entry partner, canonical isoform): as the sequence (P27986 whole entry partner, canonical isoform) above

`CCNC(=O)Nc1cccc(-n2c([C@H](C)Nc3ncnc(N)c3C#N)nc3cc(F)ccc3c2=O)c1` [Compound 54, (S)-1-(3-(2-(1-((6-amino-5-cyanopyrimidin-4-yl)amino)ethyl)-7-fluoro-4-oxoquinazolin-3(4H)-yl)phenyl)-3-ethylurea]: the IC50 was more than 10 µM on PI3Kγ, 0.25 µM on PI3Kδ and 2.6 µM on PI3Kβ.
Turning to `CCNC(=O)Nc1cccc(-n2c([C@H](C)Nc3ncnc(N)c3C#N)nc3cccc(C)c3c2=O)c1` [Compound 55, (S)-1-(3-(2-(1-((6-amino-5-cyanopyrimidin-4-yl)amino)ethyl)-5-methyl-4-oxoquinazolin-3(4H)-yl)phenyl)-3-ethylurea], the IC50 on PI3Kγ was found to be 1.8 µM; at PI3Kδ, 0.003 µM; at PI3Kβ, 0.012 µM.
Take `CCNC(=O)Nc1cccc(-n2c([C@H](C)Nc3ncnc(N)c3C#N)nc3cccc(OC)c3c2=O)c1` [Compound 56, (S)-1-(3-(2-(1-((6-amino-5-cyanopyrimidin-4-yl)amino)ethyl)-5-methoxy-4-oxoquinazolin-3(4H)-yl)phenyl)-3-ethylurea]: the IC50 was more than 10 µM on PI3Kγ, 0.88 µM on PI3Kδ and 6.6 µM at PI3Kβ.
As to `CCNC(=O)Nc1cccc(-n2c([C@H](C)N(C)c3ncnc(N)c3C#N)nc3cccc(Cl)c3c2=O)c1` [Compound 57, (S)-1-(3-(2-(1-((6-amino-5-cyanopyrimidin-4-yl)(methyl)amino)ethyl)-5-chloro-4-oxoquinazolin-3(4H)-yl)phenyl)-3-ethylurea], the figures for the concentration for half-maximal inhibition (IC50) at PI3Kγ, on PI3Kδ and at PI3Kβ were more than 10 µM, 0.61 µM and 0.58 µM, respectively.
With `CCNC(=O)Nc1cccc(-n2c([C@H](C)Nc3ncnc(N)c3C#N)nc3c(F)ccc(Cl)c3c2=O)c1` [Compound 62, (S)-1-(3-(2-(1-((6-amino-5-cyanopyrimidin-4-yl)amino)ethyl)-5-chloro-8-fluoro-4-oxoquinazolin-3(4H)-yl)phenyl)-3-ethylurea], the IC50 at PI3Kγ came out at 3.8 µM; on PI3Kδ, 0.004 µM; on PI3Kβ, 0.007 µM.
Consider `C[C@H](Nc1ncnc(N)c1C#N)c1nc2c(Cl)ccc(Cl)c2c(=O)n1-c1cccc(NC(=O)NCCCO)c1` [Compound 64, (S)-1-(3-(2-(1-((6-amino-5-cyanopyrimidin-4-yl)amino)ethyl)-5,8-dichloro-4-oxoquinazolin-3(4H)-yl)phenyl)-3-(3-hydroxypropyl)urea], for which the IC50 at PI3Kγ is more than 10 µM; on PI3Kδ, 0.008 µM; at PI3Kβ it was 0.007 µM.
Turning to `C[C@H](Nc1ncnc(N)c1C#N)c1nc2c(Cl)cccc2c(=O)n1-c1cccc(NC(=O)NCCCO)c1` [Compound 65, (S)-1-(3-(2-(1-((6-amino-5-cyanopyrimidin-4-yl)amino)ethyl)-8-chloro-4-oxoquinazolin-3(4H)-yl)phenyl)-3-(3-hydroxypropyl)urea], the half-maximal inhibitory concentration (IC50) at PI3Kγ was more than 10 µM; on PI3Kδ, 0.082 µM; on PI3Kβ, 0.22 µM.
The matching figures for `C[C@H](Nc1ncnc(N)c1C#N)c1nc2c(F)ccc(Cl)c2c(=O)n1-c1cccc(NC(=O)NCCCO)c1` [Compound 66, (S)-1-(3-(2-(1-((6-amino-5-cyanopyrimidin-4-yl)amino)ethyl)-5-chloro-8-fluoro-4-oxoquinazolin-3(4H)-yl)phenyl)-3-(3-hydroxypropyl)urea]: 3.7 µM, 0.009 µM and 0.004 µM.
As for `C[C@H](Nc1ncnc(N)c1C#N)c1nc2c(F)ccc(F)c2c(=O)n1-c1cccc(NC(=O)NCCCO)c1` [Compound 67, (S)-1-(3-(2-(1-((6-amino-5-cyanopyrimidin-4-yl)amino)ethyl)-5,8-difluoro-4-oxoquinazolin-3(4H)-yl)phenyl)-3-(3-hydroxypropyl)urea], the concentration for half-maximal inhibition (IC50) at PI3Kγ is more than 10 µM; on PI3Kδ, 0.098 µM; at PI3Kβ it was 0.038 µM.
For the molecule `C[C@H](Nc1ncnc(N)c1C#N)c1nc2c(F)cccc2c(=O)n1-c1cccc(NC(=O)NCCCO)c1` [Compound 68, (S)-1-(3-(2-(1-((6-amino-5-cyanopyrimidin-4-yl)amino)ethyl)-8-fluoro-4-oxoquinazolin-3(4H)-yl)phenyl)-3-(3-hydroxypropyl)urea], the IC50 at PI3Kγ was more than 10 µM; on PI3Kδ, 0.13 µM; on PI3Kβ, 0.22 µM.
Taken in the same sequence, the figures for `CCNC(=O)Nc1cccc(-n2c([C@H](C)Nc3ncnc(N)c3C#N)nc3cccc(C#N)c3c2=O)c1` [Compound 69, (S)-1-(3-(2-(1-((6-amino-5-cyanopyrimidin-4-yl)amino)ethyl)-5-cyano-4-oxoquinazolin-3(4H)-yl)phenyl)-3-ethylurea 2,2,2-trifluoroacetic acid salt] were 5.2 µM, 0.008 µM and 0.11 µM.
For the molecule `CCNC(=O)Nc1cccc(-n2c([C@H](C)Oc3ncnc(N)c3C#N)nc3cccc(Cl)c3c2=O)c1` [Compound 70, (S)-1-(3-(2-(1-((6-amino-5-cyanopyrimidin-4-yl)oxy)ethyl)-5-chloro-4-oxoquinazolin-3(4H)-yl)phenyl)-3-ethylurea], the 50% inhibitory concentration (IC50) at PI3Kγ was found to be 1.5 µM; on PI3Kδ, 0.002 µM; on PI3Kβ it was 0.012 µM.
As to `CCNC(=O)Nc1cccc(-n2c([C@H](C)Nc3ncnc4scnc34)nc3cccc(Cl)c3c2=O)c1` [Compound 72, (S)-1-(3-(5-chloro-4-oxo-2-(1-(thiazolo[5,4-d]pyrimidin-7-ylamino)ethyl)quinazolin-3(4H)-yl)phenyl)-3-ethylurea], the figures for the IC50 at PI3Kγ, at PI3Kδ and on PI3Kβ were 1.3 µM, 0.005 µM and 0.004 µM, respectively.
As to `CCNC(=O)Nc1cccc(-n2c([C@@H]3C[C@H](F)CN3c3ncnc(N)c3C#N)nc3cccc(Cl)c3c2=O)c1` [Compound 73, 1-(3-(2-((2S,4S)-1-(6-amino-5-cyanopyrimidin-4-yl)-4-fluoropyrrolidin-2-yl)-5-chloro-4-oxoquinazolin-3(4H)-yl)phenyl)-3-ethylurea], the IC50 at PI3Kγ was found to be 5.6 µM; at PI3Kδ, 0.017 µM; on PI3Kβ, 0.038 µM.
With `C[C@H](Nc1ncnc(N)c1C#N)c1nc2cccc(Cl)c2c(=O)n1-c1cccc(NC(=O)NC2(C(F)(F)F)CC2)c1` [Compound 75, (S)-1-(3-(2-(1-((6-amino-5-cyanopyrimidin-4-yl)amino)ethyl)-5-chloro-4-oxoquinazolin-3(4H)-yl)phenyl)-3-(1-(trifluoromethyl)cyclopropyl)urea], the IC50 on PI3Kγ was more than 10 µM; on PI3Kδ, 0.009 µM; at PI3Kβ, 0.01 µM.
Taken in the same sequence, the figures for `C[C@H](Nc1ncnc(N)c1C#N)c1nc2cccc(Cl)c2c(=O)n1-c1cccc(NC(=O)NCC(F)(F)F)c1` [Compound 76, (S)-1-(3-(2-(1-((6-amino-5-cyanopyrimidin-4-yl)amino)ethyl)-5-chloro-4-oxoquinazolin-3(4H)-yl)phenyl)-3-(2,2,2-trifluoroethyl)urea] were 4.4 µM, 0.007 µM and 0.005 µM.
The matching figures for `CC(C)NC(=O)Nc1cc(-n2c([C@H](C)Nc3ncnc(N)c3C#N)nc3cccc(Cl)c3c2=O)ccc1F` [Compound 77, (S)-1-(5-(2-(1-((6-amino-5-cyanopyrimidin-4-yl)amino)ethyl)-5-chloro-4-oxoquinazolin-3(4H)-yl)-2-fluorophenyl)-3-isopropylurea]: 9.5 µM, 0.027 µM and 0.42 µM.
Taken in the same sequence, the figures for `CCNC(=O)Nc1cc(-n2c([C@H](C)Nc3ncnc(N)c3C#N)nc3cccc(Cl)c3c2=O)ccc1F` [Compound 78, (S)-1-(5-(2-(1-((6-amino-5-cyanopyrimidin-4-yl)amino)ethyl)-5-chloro-4-oxoquinazolin-3(4H)-yl)-2-fluorophenyl)-3-ethylurea] were 4.9 µM, 0.032 µM and 0.016 µM.
As to `C[C@H](Nc1ncnc(N)c1C#N)c1nc2cccc(Cl)c2c(=O)n1-c1cccc(NC(=O)NS(=O)(=O)C2CCCC2)c1` [Compound 79, (S)—N-((3-(2-(1-((6-amino-5-cyanopyrimidin-4-yl)amino)ethyl)-5-chloro-4-oxoquinazolin-3(4H)-yl)phenyl)carbamoyl)cyclopentanesulfonamide], the IC50 at PI3Kγ worked out at 0.68 µM; at PI3Kδ, 0.002 µM; on PI3Kβ, 0.071 µM.
For the molecule `C[C@H](Nc1ncnc2scnc12)c1nc2cccc(Cl)c2c(=O)n1-c1cccc(NC(=O)NS(=O)(=O)C2CCCC2)c1` [Compound 80, (S)—N-((3-(5-chloro-4-oxo-2-(1-(thiazolo[5,4-d]pyrimidin-7-ylamino)ethyl)quinazolin-3(4H)-yl)phenyl)carbamoyl)cyclopentanesulfonamide], the concentration for half-maximal inhibition (IC50) turned out to be 0.25 µM at PI3Kγ, 0.0009 µM on PI3Kδ and 0.12 µM at PI3Kβ.
As to `C[C@H](Nc1ncnc(N)c1C#N)c1nc2cccc(Cl)c2c(=O)n1-c1cccc(NC(=O)NS(=O)(=O)C2CC2)c1` [Compound 81, (S)—N-((3-(2-(1-((6-amino-5-cyanopyrimidin-4-yl)amino)ethyl)-5-chloro-4-oxoquinazolin-3(4H)-yl)phenyl)carbamoyl)cyclopropanesulfonamide], the IC50 was determined as 2.8 µM on PI3Kγ, 0.002 µM at PI3Kδ and 0.35 µM at PI3Kβ.
The matching figures for `N#Cc1c(N)ncnc1N1CCC[C@H]1c1nc2cccc(Cl)c2c(=O)n1-c1cccc(NC(=O)NCC2OCCO2)c1` [Compound 82, (S)-1-((1,3-dioxolan-2-yl)methyl)-3-(3-(2-(1-(6-amino-5-cyanopyrimidin-4-yl)pyrrolidin-2-yl)-5-chloro-4-oxoquinazolin-3(4H)-yl)phenyl)urea]: 8.6 µM, 0.016 µM and 0.029 µM.
